Results: the supplement of paper PMC10307832

What was measured:
Experiment in all cases: relative viability (nuclei count vs DMSO), 5 days (fraction); higher = more cells survive
[1] = compound: COC1=CC=C(C=C1)CN2C=CC3=C2C=C(C=C3)C(=O)NO + CC(=O)Nc1cccc(-n2c(=O)n(C3CC3)c(=O)c3c(Nc4ccc(I)cc4F)n(C)c(=O)c(C)c32)c1 [Trametinib] (partner 0.02 µM)
In short: (§1)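 Relative viability equals treated-well nuclei counts divided by vehicle-well nuclei counts. Counts came from 4× images of lung cancer cell lines grown in 1536-well plates for 5 days after pin-tool dosing on the day after seeding. Dosing used one drug alone or a fixed anchor-drug dose plus five library-drug doses (not always all listed) in √10 steps, and values are medians of duplicate plates.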

[2] = compound: COC1=CC=C(C=C1)CN2C=CC3=C2C=C(C=C3)C(=O)NO + CS(=O)(=O)N1CCN(Cc2cc3nc(-c4cccc5[nH]ncc45)nc(N4CCOCC4)c3s2)CC1 [Pictilisib] (partner 1 µM)
In short: as §1

Veliparib + Foretinib = compound: C[C@]1(c2nc3c(C(N)=O)cccc3[nH]2)CCCN1 [Veliparib] + COc1cc2c(Oc3ccc(NC(=O)C4(C(=O)Nc5ccc(F)cc5)CC4)cc3F)ccnc2cc1OCCCN1CCOCC1 [Foretinib] (partner 0.25 µM)
In short: as §1

Veliparib + Olaparib = compound: C[C@]1(c2nc3c(C(N)=O)cccc3[nH]2)CCCN1 [Veliparib] + O=C(c1cc(Cc2n[nH]c(=O)c3ccccc23)ccc1F)N1CCN(C(=O)C2CC2)CC1 [Olaparib] (partner 8 µM)
In short: as §1

SW 1573 showed a relative viability ([1]; first compound 0.253 µM) of 0.539, a relative viability ([1]; first compound 0.8 µM) of 0.678 and a relative viability ([1]; first compound 2.53 µM) of 0.562. For the same cell line, the relative viability ([1]; first compound 8 µM) was 0.37, the relative viability ([2]; first compound 0.253 µM) was 0.478 and the relative viability ([2]; first compound 0.8 µM) was 0.554. For the same cell line, the relative viability ([2]; first compound 2.53 µM) was 0.532, the relative viability ([2]; first compound 8 µM) was 0.486 and the relative viability (Veliparib + Foretinib; first compound 0.02 µM) was 0.881. The relative viability (Veliparib + Foretinib; first compound 0.06325 µM) was 0.771, the relative viability (Veliparib + Foretinib; first compound 0.2 µM) was 0.99 and the relative viability (Veliparib + Foretinib; first compound 0.6325 µM) was 0.828. It also gave a relative viability (Veliparib + Foretinib; first compound 2 µM) of 0.941, a relative viability (Veliparib + Olaparib; first compound 0.02 µM) of 0.57 and a relative viability (Veliparib + Olaparib; first compound 0.06325 µM) of 0.428. The relative viability (Veliparib + Olaparib; first compound 0.2 µM) was 0.464, the relative viability (Veliparib + Olaparib; first compound 0.6325 µM) was 0.42 and the relative viability (Veliparib + Olaparib; first compound 2 µM) was 0.442.
